Assay results as given in patent publication US5840684A, “Glycopeptide antibiotic derivatives” (Eli Lilly and Company, priority 1995, dated 1998).
Values after ≈ are worked out from the molar mass of the structure shown.

Assays:
Escherichia coli EC14 = experiment: broth micro-dilution MIC; type: cell-based
Protocol: (§1) The formula I compounds have in vitro and in vivo activity against Gram-positive pathogenic bacteria. The MIC's were determined using a standard broth micro-dilution assay.

[1] = system: Staphylococcus haemolyticus 105; experiment: broth micro-dilution MIC; type: cell-based
Protocol: as §1

[2] = system: Staphylococcus epidermidis 270; experiment: broth micro-dilution MIC; type: cell-based
Protocol: as §1

[3] = system: Haemophilus influenzae RD; experiment: broth micro-dilution MIC; type: cell-based; conditions: Haemophilus influenzae RD
Protocol: as §1

Entercoccus faecium 180 = experiment: broth micro-dilution MIC; type: cell-based; conditions: Entercoccus faecium 180
Protocol: as §1

[4] = system: vancomycin-susceptible enterococci; experiment: broth micro-dilution, mean geometric MIC; type: cell-based, Enterococcus faecium and Enterococcus faecalis; conditions: enterococci, 24-hour incubation
[5] = system: vancomycin-resistant enterococci; experiment: broth micro-dilution, mean geometric MIC; type: cell-based, Enterococcus faecium and Enterococcus faecalis; conditions: enterococci, 24-hour incubation
[6] = system: Staphylococcus aureus 489; experiment: broth micro-dilution MIC; type: cell-based
Protocol: (§2) The MIC's were determined using a standard broth micro-dilution assay.

[7] = system: Staphylococcus aureus 491; experiment: broth micro-dilution MIC; type: cell-based
Protocol: as §2

[8] = system: Entercoccus faecium 180-1; experiment: broth micro-dilution MIC; type: cell-based
Protocol: as §2

[9] = system: Staphylococcus aureus 447; experiment: broth micro-dilution MIC; type: cell-based
Protocol: as §2

[10] = system: Staphylococcus aureus 446; experiment: broth micro-dilution MIC; type: cell-based
Protocol: as §2

[11] = system: Streptococcus pneumoniae P1; experiment: broth micro-dilution MIC; type: cell-based
Protocol: as §1

[12] = system: Staphylococcus haemolyticus 415; experiment: broth micro-dilution MIC; type: cell-based
Protocol: as §1

[13] = system: Enterococcus gallinarum 245; experiment: broth micro-dilution MIC; type: cell-based; conditions: Enterococcus gallinarum 245
Protocol: as §1

[14] = system: Staphylococcus aureus SA1199B; type: cell-based
Protocol: as §2

[15] = system: Streptococcus pyogenes C203; experiment: broth micro-dilution MIC; type: cell-based
Protocol: as §2

[16] = system: Staphylococcus aureus X778; experiment: broth micro-dilution MIC; type: cell-based
Protocol: as §2

[17] = system: Staphylococcus aureus X400; experiment: broth micro-dilution MIC; type: cell-based
Protocol: as §2

[18] = system: Staphylococcus aureus SA1199; experiment: broth micro-dilution MIC; type: cell-based
Protocol: as §2

Entercoccus faecium 2041 = experiment: broth micro-dilution MIC; type: cell-based; conditions: Entercoccus faecium 2041
Protocol: as §1

Entercoccus faecium 276 = experiment: broth micro-dilution MIC; type: cell-based
Protocol: as §2

[19] = system: Staphylococcus aureus SA1199A; experiment: broth micro-dilution MIC; type: cell-based
Protocol: as §2

[20] = system: Staphylococcus aureus S13E; type: cell-based
Protocol: as §2

| SMILES | MIC (Escherichia coli EC14) [µg/mL] | MIC [1] [µg/mL] | MIC [2] [µg/mL] | MIC (Entercoccus faecium 180) [µg/mL] | mean geometric MIC, Vancomycin Sensitive Strains [4] [µg/mL] | mean geometric MIC, Vancomycin Resistant Strains [5] [µg/mL] | MIC [6] [µg/mL] | MIC [7] [µg/mL] | MIC [8] [µg/mL] | MIC [9] [µg/mL] | MIC [10] [µg/mL] | MIC [11] [µg/mL] | MIC [12] [µg/mL] | MIC [13] [µg/mL] | MIC [14] [µg/mL] | MIC [15] [µg/mL] | MIC [16] [µg/mL] | MIC [17] [µg/mL] | MIC [18] [µg/mL] | MIC (Entercoccus faecium 2041) [µg/mL] | other results |
| --- | --- | --- | --- | --- | --- | --- | --- | --- | --- | --- | --- | --- | --- | --- | --- | --- | --- | --- | --- | --- | --- |
| CNC(CC(C)C)C(=O)NC1C(=O)NC(CC(N)=O)C(=O)NC2C(=O)NC3C(=O)NC(C(=O)NC(C(=O)O)c4cc(O)cc(O)c4-c4cc3ccc4O)C(OC3CC(C)(N)C(O)C(C)O3)c3ccc(c(Cl)c3)Oc3cc2cc(c3OC2OC(CO)C(O)C(O)C2OC2CC(C)(NCc3ccccn3)C(O)C(C)O2)Oc2ccc(cc2Cl)C1O (stereo not shown) [Compound 31] | > 64 | 4 (≈ 2.38 µM) | 1 (≈ 0.594 µM) | 4 (≈ 2.38 µM) | 1.2 | 9.5 | ≤ 0.06 | 0.5 (≈ 0.297 µM) | ≤ 0.06 | 0.5 (≈ 0.297 µM) | 0.5 (≈ 0.297 µM) | – | – | – | – | – | – | – | – | – | MIC [3]: > 64 µg/mL |
| CNC(CC(C)C)C(=O)NC1C(=O)NC(CC(N)=O)C(=O)NC2C(=O)NC3C(=O)NC(C(=O)NC(C(=O)O)c4cc(O)cc(O)c4-c4cc3ccc4O)C(OC3CC(C)(N)C(O)C(C)O3)c3ccc(c(Cl)c3)Oc3cc2cc(c3OC2OC(CO)C(O)C(O)C2OC2CC(C)(NCc3c(C)c(C)c(C)c(C)c3C)C(O)C(C)O2)Oc2ccc(cc2Cl)C1O (stereo not shown) [Compound 73] | > 64 | 0.5 (≈ 0.285 µM) | – | 0.5 (≈ 0.285 µM) | – | 11 | – | – | ≤ 0.06 | – | – | ≤ 0.06 | 2 (≈ 1.14 µM) | 2 (≈ 1.14 µM) | ≤ 0.06 | ≤ 0.06 | 1 (≈ 0.571 µM) | 0.5 (≈ 0.285 µM) | 0.5 (≈ 0.285 µM) | – | – |
| CNC(CC(C)C)C(=O)NC1C(=O)NC(CC(N)=O)C(=O)NC2C(=O)NC3C(=O)NC(C(=O)NC(C(=O)O)c4cc(O)cc(O)c4-c4cc3ccc4O)C(OC3CC(C)(N)C(O)C(C)O3)c3ccc(c(Cl)c3)Oc3cc2cc(c3OC2OC(CO)C(O)C(O)C2OC2CC(C)(NCc3ccc([N+](=O)[O-])cc3)C(O)C(C)O2)Oc2ccc(cc2Cl)C1O (stereo not shown) [Compound 78] | > 64 | 2 (≈ 1.16 µM) | 0.5 (≈ 0.289 µM) | 1 (≈ 0.579 µM) | 0.76 | 16 | ≤ 0.06 | 0.25 (≈ 0.145 µM) | ≤ 0.06 | ≤ 0.06 | 2 (≈ 1.16 µM) | ≤ 0.06 | 16 (≈ 9.26 µM) | 0.125 (≈ 0.0724 µM) | ≤ 0.06 | ≤ 0.06 | ≤ 0.06 | ≤ 0.06 | 0.125 (≈ 0.0724 µM) | ≤ 0.06 | MIC (Entercoccus faecium 276): 0.125 µg/mL (≈ 0.0724 µM); MIC [19]: ≤ 0.06 µg/mL |
| CNC(CC(C)C)C(=O)NC1C(=O)NC(CC(N)=O)C(=O)NC2C(=O)NC3C(=O)NC(C(=O)NC(C(=O)O)c4cc(O)cc(O)c4-c4cc3ccc4O)C(OC3CC(C)(N)C(O)C(C)O3)c3ccc(c(Cl)c3)Oc3cc2cc(c3OC2OC(CO)C(O)C(O)C2OC2CC(C)(NCC3CCCCC3)C(O)C(C)O2)Oc2ccc(cc2Cl)C1O (stereo not shown) [Compound 161] | > 64 | 4 (≈ 2.37 µM) | 1 (≈ 0.592 µM) | 2 (≈ 1.18 µM) | 0.44 | 23 | ≤ 0.06 | 0.5 (≈ 0.296 µM) | ≤ 0.06 | 1 (≈ 0.592 µM) | 0.5 (≈ 0.296 µM) | ≤ 0.06 | 8 (≈ 4.74 µM) | 8 (≈ 4.74 µM) | 0.25 (≈ 0.148 µM) | ≤ 0.06 | 0.5 (≈ 0.296 µM) | 0.5 (≈ 0.296 µM) | 0.25 (≈ 0.148 µM) | ≤ 0.06 | MIC [20]: 0.125 µg/mL (≈ 0.074 µM); MIC (Entercoccus faecium 276): 0.125 µg/mL (≈ 0.074 µM); MIC [19]: ≤ 0.06 µg/mL |
